Our source for the Ki values is patent publication US9487501B2, “Pyrazole carboxamide compounds and uses thereof” (Hoffmann-La Roche Inc., priority 2012, dated 2016).

Counter-ions that a name gives are not always drawn.

The target in one assay is mouse TAAR1 (Mus musculus (Mouse), UniProt Q923Y8). In words: Radioligand binding assay on mouse TAAR1. To be noted: read-out: Ki (μM) mouse; mouse TAAR1, membranes of HEK-293 cells, radioligand displacement. A general note: Displacement assays read how much labelled ligand stays bound in the presence of the test substance.
Chain of mouse TAAR1 (Q923Y8 whole entry): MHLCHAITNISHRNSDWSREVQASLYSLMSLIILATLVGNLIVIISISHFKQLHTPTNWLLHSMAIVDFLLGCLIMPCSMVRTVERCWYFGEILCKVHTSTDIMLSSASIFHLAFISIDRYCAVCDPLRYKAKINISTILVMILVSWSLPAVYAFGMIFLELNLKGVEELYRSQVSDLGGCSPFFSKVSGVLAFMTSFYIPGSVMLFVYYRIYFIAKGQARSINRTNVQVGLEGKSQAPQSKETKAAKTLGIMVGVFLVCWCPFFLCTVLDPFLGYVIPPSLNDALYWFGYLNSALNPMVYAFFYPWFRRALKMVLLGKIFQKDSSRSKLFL
A further assay concerns the target rat TAAR1 (Rattus norvegicus (Rat), UniProt Q923Y9). Briefly: Radioligand binding assay on rat TAAR1.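 Further: stably transfected HEK293 cell membranes with a tritiated radioligand, 1 h incubation at 4 °C, nonspecific binding taken as binding with 10 µM unlabeled ligand.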 To be noted: read-out: Ki (μM) rat; rat TAAR1, membranes of HEK-293 cells, radioligand displacement.

Chain of rat TAAR1 (Q923Y9 whole entry): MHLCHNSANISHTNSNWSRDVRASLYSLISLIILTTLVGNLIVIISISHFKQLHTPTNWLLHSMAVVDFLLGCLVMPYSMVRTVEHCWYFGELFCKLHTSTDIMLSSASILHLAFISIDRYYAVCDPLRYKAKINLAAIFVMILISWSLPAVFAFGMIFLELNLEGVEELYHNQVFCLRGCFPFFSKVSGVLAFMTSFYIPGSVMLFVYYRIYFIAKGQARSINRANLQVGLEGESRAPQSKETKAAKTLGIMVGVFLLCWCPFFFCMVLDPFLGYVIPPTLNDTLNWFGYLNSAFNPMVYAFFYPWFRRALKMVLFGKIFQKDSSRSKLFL
Method for mouse TAAR1: (§1) For the generation of stably transfected cell lines HEK293 cells were transfected with the pIRESneo2 expression plasmids containing the TAAR coding sequences (described above) with Lipofectamine 2000 (Invitrogen) according to the instructions of the manufacturer, and 24 hrs post transfection the culture medium was supplemented with 1 mg/ml G418 (Sigma, Buchs, Switzerland). […] Radioligand Binding Assay on Rat TAAR1 Membrane Preparation and Radioligand Binding. […] Cells were released from culture flasks using trypsin/EDTA, harvested, washed twice with ice-cold PBS (without Ca^2+ and Mg^2+), pelleted at 1,000 rpm for 5 min at 4° C., frozen and stored at −80° C. Frozen pellets were suspended in 20 ml HEPES-NaOH (20 mM, pH 7.4) containing 10 mM EDTA and homogenized with a Polytron (PT 6000, Kinematica) at 14,000 rpm for 20 s. The homogenate was centrifuged at 48,000×g for 30 min at 4° C. Subsequently, the supernatant was removed and discarded, and the pellet resuspended in 20 ml HEPES-NaOH (20 mM, pH 7.4) containing 0.1 mM EDTA using the Polytron (20 s at 14,000 rpm). This procedure was repeated and the final pellet resuspended in HEPES-NaOH containing 0.1 mM EDTA and homogenized using the Polytron. Typically, aliquots of 2 ml membrane portions were stored at −80° C. With each new membrane batch the dissociation constant (Kd) was determined via a saturation curve. […] Nonspecific binding was defined as the amount of ^3[H]-(S)-4-[(ethyl-phenyl-amino)-methyl]-4,5-dihydro-oxazol-2-ylamine bound in the presence of 10 μM unlabeled ligand. All compounds were tested at a broad range of concentrations (10 pM to 10 μM) in duplicates. […] The 96 deep well plates were incubated for 1 hr at 4° C. Incubations were terminated by rapid filtration through Unifilter-96 plates (Packard Instrument Company) and glass filters GF/C (Perkin Elmer) presoaked for 1 hr in polyethylenimine (0.3%) and washed 3 times with 1 ml of cold binding buffer. After addition of 45 μl of Microscint 40 (PerkinElmer) the Unifilter-96 plate was sealed and after 1 hr the radioactivity counted using a TopCount Microplate Scintillation Counter (Packard Instrument Company). Radioligand Binding Assay on Mouse TAAR1 Membrane Preparation and Radioligand Binding. […] Cells were released from culture flasks using trypsin/EDTA, harvested, washed twice with ice-cold PBS (without Ca^2+ and Mg^2+), pelleted at 1,000 rpm for 5 min at 4° C., frozen and stored at −80° C. Frozen pellets were suspended in 20 ml HEPES-NaOH (20 mM, pH 7.4) containing 10 mM EDTA and homogenized with a Polytron (PT 6000, Kinematica) at 14,000 rpm for 20 s. The homogenate was centrifuged at 48,000×g for 30 min at 4° C. Subsequently, the supernatant was removed and discarded, and the pellet resuspended in 20 ml HEPES-NaOH (20 mM, pH 7.4) containing 0.1 mM EDTA using the Polytron (20 s at 14,000 rpm). This procedure was repeated and the final pellet resuspended in HEPES-NaOH containing 0.1 mM EDTA and homogenized using the Polytron. Typically, aliquots of 2 ml membrane portions were stored at −80° C. With each new membrane batch the dissociation constant (Kd) was determined via a saturation curve.
Method for rat TAAR1: as §1

For `N#Cc1cnc(-n2cc(C(=O)Nc3ccc([C@H]4CNCCO4)cc3)cn2)cn1` [Example 42, (S)-1-(5-cyanopyrazin-2-yl)-N-(4-(morpholin-2-yl)phenyl)-1H-pyrazole-4-carboxamide hydrochloride], the Ki (commonly the dissociation constant of the complex between target and ligand, obtained from inhibition or displacement) at mouse TAAR1 was 0.0199 µM; on rat TAAR1, 0.0326 µM.

As for `O=C(Nc1ccc([C@H]2CNCCO2)cc1)c1cnn(-c2ccc(OC(F)F)cc2)c1` [Example 21, (S)-1-(4-(difluoromethoxy)phenyl)-N-(4-(morpholin-2-yl)phenyl)-1H-pyrazole-4-carboxamide hydrochloride], the values for the Ki at mouse TAAR1 and on rat TAAR1 were 0.0017 µM and 0.004 µM, respectively.

On to `N#Cc1cc(F)ccc1-n1cc(C(=O)Nc2ccc([C@H]3CNCCO3)cc2)cn1` [Example 25, (S)-1-(2-cyano-4-fluorophenyl)-N-(4-(morpholin-2-yl)phenyl)-1H-pyrazole-4-carboxamide hydrochloride], for which the Ki on mouse TAAR1 was 0.0082 µM; on rat TAAR1, 0.0078 µM.

Regarding `O=C(Nc1ccc([C@H]2CNCCO2)cc1)c1cnn(-c2cc(C(F)(F)F)ccn2)c1` [Example 14, (S)—N-(4-(morpholin-2-yl)phenyl)-1-(4-(trifluoromethyl)pyridin-2-yl)-1H-pyrazole-4-carboxamide hydrochloride], the Ki on mouse TAAR1 amounted to 0.0013 µM; on rat TAAR1, 0.0019 µM.

For the compound `O=C(Nc1ccc([C@H]2CNCCO2)cc1)c1cnn(-c2nccnc2Cl)c1` [Example 41, (S)-1-(3-chloropyrazin-2-yl)-N-(4-(morpholin-2-yl)phenyl)-1H-pyrazole-4-carboxamide hydrochloride], the Ki on mouse TAAR1 was 0.0275 µM; on rat TAAR1 it was 0.0814 µM.

`Nc1c(C(=O)Nc2ccc([C@H]3CNCCO3)cc2)cnn1-c1ccc(F)cc1` [Example 2, (S)-5-amino-1-(4-fluorophenyl)-N-(4-(morpholin-2-yl)phenyl)-1H-pyrazole-4-carboxamide dihydrochloride]: the Ki amounted to 0.0144 µM at mouse TAAR1 and 0.401 µM at rat TAAR1.

Take `Cc1ccnc(-n2cc(C(=O)Nc3ccc([C@H]4CNCCO4)cc3)cn2)n1` [Example 43, (S)-1-(4-methylpyrimidin-2-yl)-N-(4-(morpholin-2-yl)phenyl)-1H-pyrazole-4-carboxamide hydrochloride]: the figures for the Ki on mouse TAAR1 and at rat TAAR1 were 0.0554 µM and 0.315 µM, respectively.

On to `CCOc1cccc(-n2cc(C(=O)Nc3ccc([C@H]4CNCCO4)cc3)cn2)n1` [Example 28, (S)-1-(6-ethoxypyridin-2-yl)-N-(4-(morpholin-2-yl)phenyl)-1H-pyrazole-4-carboxamide hydrochloride], for which the results for the inhibitory constant (Ki) on mouse TAAR1 and on rat TAAR1 were 0.0008 µM and 0.0022 µM, respectively.

Consider `N#Cc1ccc(-n2cc(C(=O)Nc3ccc([C@H]4CNCCO4)cc3)cn2)cc1F` [Example 24, (S)-1-(4-cyano-3-fluorophenyl)-N-(4-(morpholin-2-yl)phenyl)-1H-pyrazole-4-carboxamide hydrochloride], for which the Ki at mouse TAAR1 was determined as 0.0175 µM; on rat TAAR1 it was 0.0154 µM.

Regarding `O=C(Nc1ccc([C@H]2CNCCO2)cc1)c1cnn(-c2nccc(C(F)(F)F)n2)c1` [Example 48, (S)—N-(4-(morpholin-2-yl)phenyl)-1-(4-(trifluoromethyl)pyrimidin-2-yl)-1H-pyrazole-4-carboxamide hydrochloride], the Ki turned out to be 0.0531 µM on mouse TAAR1 and 0.149 µM at rat TAAR1.

As to `Cc1nn(-c2ccc(OC(F)F)cc2)cc1C(=O)Nc1ccc([C@H]2CNCCO2)cc1` [Example 32, (S)-1-(4-(difluoromethoxy)phenyl)-3-methyl-N-(4-(morpholin-2-yl)phenyl)-1H-pyrazole-4-carboxamide hydrochloride], the results for the inhibitory constant (Ki) at mouse TAAR1 and on rat TAAR1 were 0.0008 µM and 0.0002 µM, respectively.

Take `O=C(Nc1ccc([C@H]2CNCCO2)cc1)c1cnn(-c2ncc(C(F)(F)F)cn2)c1` [Example 37, (S)—N-(4-(morpholin-2-yl)phenyl)-1-(5-(trifluoromethyl)pyrimidin-2-yl)-1H-pyrazole-4-carboxamide hydrochloride]: the figures for the Ki on mouse TAAR1 and on rat TAAR1 were 0.0615 µM and 0.0931 µM, respectively.
